Data on 1 substance can be found in patent US20240009231A1, “Method for Pleurodesis and Delivery of Drugs to the Lung and Pleural Space” (University of Cincinnati, priority 2020, published 2024).

In data set [1] the test system is C57BL/6J mice. To be noted: mouse, in vivo.
Description: Either hydroxyapatite microspheres (HAMs, Fluidinova) or talc was injected via the intrapleural (i.pl.) route into C57BL/6J mice. For the mice injected with HAMs, 4 mg/g mouse of HAM/300 μL saline/mice was used. For the mice injected with talc, 2 mg/g mouse of talc/300 μL saline/mice was used. The mice were euthanized at day 0, day 7, day 14 or day 28 and post-mortem assessments were performed. Effectiveness of pleurodesis was assessed by introducing air into the pleural space. Each lung was punctured percutaneously with a 20 G needle for 12 times for left and right lung (total 24 times) (transthoracic needle puncture). Then, a CT scan was taken to measure the volume of pneumothorax air space in the thoracic cavity (see FIGS. 1A and 1B).
In addition, paraffin-embedded lung sections were stained with H&E and Mason's trichrome reagent for microscopic evaluation of pleural fibrosis and pleural thickness. Clearance of particles was assessed by microCT (see FIGS. 2A and 2B). Macroscopic pleural adhesions were scored (see FIGS. 3A, 3B and 3C); pleural lavage cells were collected to assess OLMNGC (osteoclast-like multinucleated giant cells) formation, including cytology, fibrosis- and osteoclast-related gene and protein expression of tartrate-resistant acid phosphatase (TRAP), (CTSK), and calcitonin receptor (Calcr) antibody by rtPCR and immunohistochemistry
For data set [2], the system named is lungs of mice. To be noted: mouse, in vivo.

For hydroxyapatite [HAMs], in data set [1], the “amount of residual particles in the thoracic cavity” value is recorded as “decreased over time” and the clearance of particles result was “almost completely cleared”. For the same substance, in data set [2], the lung inflammation result is listed as “transient monocyte rich inflammation” and the pulmonary fibrosis result is “no residual fibrosis”. The “clearance of particles from the lungs” value in data set [2] (inhaled or intranasal) is recorded as “cleared within a month”.
